US20230192644A1, “PIPERIDINE-2,6-DIONES AS SMALL MOLECULE DEGRADERS OF HELIOS AND METHODS OF USE” (DANA-FARBER CANCER INSTITUTE, INC., priority 2020, published 2023)
Where two headings read alike, the source gives them in different places.

Columns and labels:
IKZF2 = test: GFP-IKZF2 cellular degradation assay (eGFP fusion/mCherry reporter, Flip-In 293 cells); format: cell-based; conditions: Flip-In 293 cells stably expressing IKZF2 GFP fusion with mCherry reporter, 5 h
Method: IKZF1A and IKZF2A were subcloned into mammalian pcDNA5/FRT Vector (Ampicillin and Hygromycin B resistant) modified to contain MCS-eGFP-P2A-mCherry. Stable cell lines expressing eGFP-protein fusion and mCherry reporter were generated using Flip-In 293 system. Plasmid (0.3 μg) and pOG44 (4.7 μg) DNA were preincubated in 100 μL of Opti-MEM™ I (Gibco™, Life Technologies™) media containing 0.05 mg/mL Lipofectamine™ 2000 (Invitrogen™) for 20 min and added to Flip-In 293 cells containing 1.9 mL of DMEM media (Gibco™, Life Technologies™) per well in a 6-well plate format (Falcon, 353046). Cells were propagated for 48 h and were then transferred into a 10 cm^2 plate (Corning, 430165) in DMEM media containing 50 μg/mL of Hygromycin B (REF 10687010, Invitrogen™) as a selection marker. Following 2-3 passage cycle, FACS (FACSAria™ II, BD) was used to enrich for cells expressing eGFP and mCherry.
(§1) Cells stably expressing the IKZF1A, or IKZF2A GFP fusions with mCherry reporter were seeded at 30-50% confluency in 384-well plates with 50 μL FluoroBrite™ DMEM media (Thermo Fisher Scientific™ A18967) containing 10% FBS per well a day before compound treatment. Compound titrations were dispensed using a D300e Digital Dispenser (HP), normalized to 0.5% DMSO, and incubated with cells for 5 hours.
(§2) The assay plate was imaged immediately using an Acumen High Content Imager (TTP Labtech) with 488 nm and 561 nm lasers in […] per well format. The resulting images were analyzed using CellProfiler (Carpenter et al., Genome Biol. 2006, 7:R100). A series of image analysis steps (‘image analysis pipeline’) was constructed. First, the red and green channels were aligned and cropped to target the middle of each well (to avoid analysis of heavily clumped cells at the edges), and a background illumination function was calculated for both red and green channels of each well individually and subtracted to correct for illumination variations across the 384-well plate from various sources of error. An additional step was then applied to the green channel to suppress the analysis of large auto fluorescent artifacts and enhance the analysis of cell specific fluorescence by way of selecting for objects under a given size, 30 A.U., and with a given shape, speckles. mCherry-positive cells were then identified in the red channel filtering for objects between 8-60 pixels in diameter and using intensity to distinguish between clumped objects. The green channel was then segmented into GFP positive and negative areas and objects were labeled as GFP positive if at least 40% of it overlapped with a GFP positive area. The fraction of GFP-positive cells/mCherry-positive cells in each well was then calculated, and the green and red images were rescaled for visualization. The concentrations that lead to half degradation at 5 h (DC50, 5h) were calculated using the nonlinear fit variable slope model (GraphPad Software).

IKZF1 = target: T1, IKZF1 (Homo sapiens, UniProt Q13422); test: GFP-IKZF1 cellular degradation assay (eGFP fusion/mCherry reporter, Flip-In 293 cells); format: cell-based
T1 construct: expressed in transfected cells
Method: IKZF1A and IKZF2A were subcloned into mammalian pcDNA5/FRT Vector (Ampicillin and Hygromycin B resistant) modified to contain MCS-eGFP-P2A-mCherry. […] Following 2-3 passage cycle, FACS (FACSAria™ II, BD) was used to enrich for cells expressing eGFP and mCherry.
as §1
as §2, with “The resulting images were analyzed using CellProfiler (Carpenter et al., Genome Biol. 2006, 7:R100).” left out

[1] = Flip-In 293 cells stably expressing IKZF1 GFP fusion with mCherry reporter, 5 h; read-out: GFP IKZF1 DC50

T1 sequence (Q13422 83-213 isoform Q13422-7 limits assumed): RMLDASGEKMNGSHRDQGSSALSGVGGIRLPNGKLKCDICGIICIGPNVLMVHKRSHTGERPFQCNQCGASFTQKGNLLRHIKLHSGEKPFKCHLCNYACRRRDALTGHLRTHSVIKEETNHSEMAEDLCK
T1 sequence (Q96SW2 whole entry partner, the tested form may be a part): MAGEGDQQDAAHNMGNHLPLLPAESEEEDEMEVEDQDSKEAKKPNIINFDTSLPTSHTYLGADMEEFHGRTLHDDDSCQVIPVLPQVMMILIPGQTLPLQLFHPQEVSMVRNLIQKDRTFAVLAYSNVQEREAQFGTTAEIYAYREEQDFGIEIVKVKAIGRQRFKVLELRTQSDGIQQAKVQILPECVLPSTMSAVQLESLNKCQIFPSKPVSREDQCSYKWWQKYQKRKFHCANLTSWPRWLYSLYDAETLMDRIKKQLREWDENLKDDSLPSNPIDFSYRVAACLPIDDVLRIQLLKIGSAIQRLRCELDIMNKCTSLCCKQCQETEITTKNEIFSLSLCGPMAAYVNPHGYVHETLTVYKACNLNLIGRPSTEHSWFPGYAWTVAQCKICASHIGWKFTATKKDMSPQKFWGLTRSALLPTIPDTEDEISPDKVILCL
T1 sequence (Q16531 whole entry partner, the tested form may be a part): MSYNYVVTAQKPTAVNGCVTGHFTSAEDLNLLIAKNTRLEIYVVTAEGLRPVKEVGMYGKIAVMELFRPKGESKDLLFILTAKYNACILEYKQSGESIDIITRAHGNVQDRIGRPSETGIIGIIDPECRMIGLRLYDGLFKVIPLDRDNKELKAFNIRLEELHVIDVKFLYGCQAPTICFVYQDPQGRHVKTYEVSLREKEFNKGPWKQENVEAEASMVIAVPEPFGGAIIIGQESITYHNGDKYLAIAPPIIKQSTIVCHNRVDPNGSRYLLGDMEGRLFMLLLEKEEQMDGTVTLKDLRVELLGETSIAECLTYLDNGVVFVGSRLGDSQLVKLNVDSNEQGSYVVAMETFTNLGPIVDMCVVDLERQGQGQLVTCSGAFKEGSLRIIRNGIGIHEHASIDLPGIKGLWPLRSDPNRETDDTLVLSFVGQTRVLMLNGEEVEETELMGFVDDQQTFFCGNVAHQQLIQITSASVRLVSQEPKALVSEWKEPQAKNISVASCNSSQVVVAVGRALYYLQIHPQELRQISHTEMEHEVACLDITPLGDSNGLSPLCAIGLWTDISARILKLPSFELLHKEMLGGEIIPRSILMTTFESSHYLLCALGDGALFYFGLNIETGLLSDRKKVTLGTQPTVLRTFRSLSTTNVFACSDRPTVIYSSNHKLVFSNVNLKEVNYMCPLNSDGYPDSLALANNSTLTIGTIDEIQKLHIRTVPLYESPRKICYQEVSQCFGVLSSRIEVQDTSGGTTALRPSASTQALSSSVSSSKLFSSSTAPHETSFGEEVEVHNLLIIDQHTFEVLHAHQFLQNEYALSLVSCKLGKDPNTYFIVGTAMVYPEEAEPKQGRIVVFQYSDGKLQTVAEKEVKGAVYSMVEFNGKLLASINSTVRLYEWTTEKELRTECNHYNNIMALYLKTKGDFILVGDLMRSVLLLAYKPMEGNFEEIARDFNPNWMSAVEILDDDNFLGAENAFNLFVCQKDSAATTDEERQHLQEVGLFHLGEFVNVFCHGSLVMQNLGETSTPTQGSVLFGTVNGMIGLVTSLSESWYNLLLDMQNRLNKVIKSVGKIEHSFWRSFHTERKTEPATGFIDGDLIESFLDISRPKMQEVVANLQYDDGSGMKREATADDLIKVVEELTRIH

Structure (SMILES): CN(CCc1ccc(C(F)(F)F)c(Cl)c1)Cc1cccc(NC2=CC(=O)N(C3CCC(=O)NC3=O)C2=O)c1 (centres unmarked) [Compound 48, 3-(3-((-(((3-chloro-4-(trifluoromethyl)phenethyl)(methyl)amino)methyl)phenyl)amino)-2,5-dioxo-2,5-dihydro-1H-pyrrol-1-yl)piperidine-2,6-dione]
- DC50 (IKZF2): 0.019 µM
- DC50 (IKZF1; read-out: GFP IKZF1 DC50; Flip-In 293 cells stably expressing IKZF1 GFP fusion with mCherry reporter, 5 h): 0.0037 µM

Structure (SMILES): Cc1ccc(NC(=O)C2CC2c2cccc(NC3=CC(=O)N(C4CCC(=O)NC4=O)C3=O)c2)cc1Cl (centres unmarked) [Compound 21]
- DC50 (IKZF2): 0.0044 µM
- DC50 (IKZF1; [1]): 0.002 µM

Structure (SMILES): CC(c1cccc(NC2=CC(=O)N(C3CCC(=O)NC3=O)C2=O)c1)N1CC(Oc2ccccc2)C1 (centres unmarked) [Compound 27]
- DC50 (IKZF2): 0.019 µM
- DC50 (IKZF1; [1]): 0.0064 µM

Structure (SMILES): CN(C)CC(CC(=O)Nc1ccc(C(F)(F)F)c(Cl)c1)c1cccc(NC2=CC(=O)N(C3CCC(=O)NC3=O)C2=O)c1 (centres unmarked) [Compound 73, N-(3-chloro-4-(trifluoromethyl)phenyl)-4-(dimethylamino)-3-(3-((1-(2,6-dioxopiperidin-3-yl)-2,5-dioxo-2,5-dihydro-1H-pyrrol-3-yl)amino)phenyl)butanamide]
- DC50 (IKZF2): 0.0044 µM
- DC50 (IKZF1; [1]): 0.0052 µM

Structure (SMILES): CC(c1cccc(NC2=CC(=O)N(C3CCC(=O)NC3=O)C2=O)c1)N1CC(c2ccccc2)C1 (centres unmarked) [Compound 25]
- DC50 (IKZF2): 0.013 µM
- DC50 (IKZF1; [1]): 0.0058 µM

Structure (SMILES): CC(CC(=O)Nc1ccc(Cl)nc1)c1cccc(NC2=CC(=O)N(C3CCC(=O)NC3=O)C2=O)c1 (centres unmarked) [Compound 8]
- DC50 (IKZF2): 0.017 µM
- DC50 (IKZF1; [1]): 0.01 µM

Structure (SMILES): O=C1CCC(N2C(=O)C=C(Nc3cccc(C4CC(C(=O)Nc5cccc(C(F)(F)F)c5)C4)c3)C2=O)C(=O)N1 (centres unmarked) [Compound 22]
- DC50 (IKZF2): 0.134 µM
- DC50 (IKZF1; [1]): 0.014 µM

Structure (SMILES): CC(C)(NCc1cccc(C(F)(F)F)c1)c1cccc(NC2=CC(=O)N(C3CCC(=O)NC3=O)C2=O)c1 (centres unmarked) [Compound 64]
- DC50 (IKZF2): 0.0092 µM
- DC50 (IKZF1; [1]): 0.0068 µM

Structure (SMILES): CC(CC(=O)Nc1cccnc1Cl)c1cccc(NC2=CC(=O)N(C3CCC(=O)NC3=O)C2=O)c1 (centres unmarked) [Compound 7]
- DC50 (IKZF2): 0.048 µM
- DC50 (IKZF1; [1]): 0.023 µM

Structure (SMILES): O=C1CCC(N2C(=O)C=C(Nc3cccc([C@H]4CNCC4C(=O)Nc4cccc(C(F)(F)F)c4)c3)C2=O)C(=O)N1 (some centres unmarked) [Compound 23]
- DC50 (IKZF2): 0.101 µM
- DC50 (IKZF1; [1]): 0.038 µM

Structure (SMILES): Cc1ccc(NC(=O)CC(c2cccc(NC3=CC(=O)N(C4CCC(=O)NC4=O)C3=O)c2)C(C)C)cc1Cl (centres unmarked) [Compound 30, N-(3-chloro-4-methylphenyl)-3-(3-((1-(2,6-dioxopiperidin-3-yl)-2,5-dioxo-2,5-dihydro-1H-pyrrol-3-yl)amino)phenyl)-4-methylpentanamide]
- DC50 (IKZF2): 0.0022 µM
- DC50 (IKZF1; [1]): 0.05 µM

Structure (SMILES): CC(CC(=O)Nc1ccnc(Cl)c1)c1cccc(NC2=CC(=O)N(C3CCC(=O)NC3=O)C2=O)c1 (centres unmarked) [Compound 9]
- DC50 (IKZF2): 0.085 µM
- DC50 (IKZF1; [1]): 0.08 µM

Structure (SMILES): CC(C)(CCNc1ccc(C(F)(F)F)c(Cl)c1)c1cccc(NC2=CC(=O)N(C3CCC(=O)NC3=O)C2=O)c1 (centres unmarked) [Compound 80, 3-(3-((3-(4-((3-chloro-4-(trifluoromethyl)phenyl)amino)-2-methylbutan-2-yl)phenyl)amino)-2,5-dioxo-2,5-dihydro-1H-pyrrol-1-yl)piperidine-2,6-dione]
- DC50 (IKZF2): 0.024 µM
- DC50 (IKZF1; [1]): 0.05 µM

Structure (SMILES): Cc1ccc(NC(=O)CN(C)c2cccc(NC3=CC(=O)N(C4CCC(=O)NC4=O)C3=O)c2)cc1Cl (centres unmarked) [Compound 44, N-(3-chloro-4-methylphenyl)-2-[(3-{[1-(2,6-dioxopiperidin-3-yl)-2,5-dioxo-2,5-dihydro-1H-pyrrol-3-yl]amino}phenyl)(methyl)amino]acetamide]
- DC50 (IKZF2): 0.0069 µM
- DC50 (IKZF1; [1]): 0.0037 µM

Structure (SMILES): CC(c1cccc(NC2=CC(=O)N(C3CCC(=O)NC3=O)C2=O)c1)N1CC(Cc2ccccc2)C1 (centres unmarked) [Compound 26]
- DC50 (IKZF2): 0.0089 µM
- DC50 (IKZF1; [1]): 0.0028 µM

Structure (SMILES): Cc1ccc(NC(=O)CC2(c3cccc(NC4=CC(=O)N(C5CCC(=O)NC5=O)C4=O)c3)CCOCC2)cc1Cl (centres unmarked) [Compound 18]
- DC50 (IKZF2): 0.0088 µM
- DC50 (IKZF1; [1]): 0.039 µM
